Structures are written as SMILES.

For the first experiment, the system named is TNF-α release induced by LPS in human peripheral blood mononuclear cells. Nature of the experiment: Test 2: Inhibition of TNF-α release induced by LPS in human peripheral blood mononuclear cells. Type of experiment: cell-based. As to conditions: Homo sapiens, PBMC, test product at 0.1 μM, LPS 400 ng/mL, 19 h, TNF-α in supernatant by ELISA. The procedure:
Test 2: Inhibition of TNF-α Release Induced by LPS in Human Peripheral Blood Mononuclear Cells
To obtain the mononuclear cells: heparinized venous blood, obtained from healthy volunteers, is diluted with an equal volume of saline phosphate buffer without calcium or magnesium. Aliquots of 30 mL of the mixture are transferred to 50 mL centrifuge tubes containing 15 mL of Ficoll-Hypaque (1.077 g/mL). The tubes are centrifuged at 1200×g for 20 min at room temperature without braking. Approximately two-thirds of the band of platelets lying above the mononuclear cells is removed with a pipette. The mononuclear cells are carefully transferred to a 50 mL tube, washed twice with saline phosphate buffer, centrifuged at 300×g for 10 min at room temperature and resuspended in RPMI supplemented with 1% inactivated fetal bovine serum at a cell density of 2×10^6 cells/mL.
Inhibition of TNF-α release: 100 μL of mononuclear cells (2×10^6 cells/mL) are incubated on 96-well plates with 50 μL of the test product (final concentration, 0.001-10 μM) and 50 μL LPS (E. coli 055B5, Sigma) at a final concentration of 400 ng/mL for 19 h at 37° C. in an atmosphere with CO2 at 5%. The amount of TNF-α released in the supernatant is quantified using a commercial ELISA kit (Biosource International).
A general note: An ELISA detects its analyte on a solid surface through an enzyme-linked reagent.
As usually defined, the inhibition is the drop in the measured response relative to a control, in per cent. Read a high inhibition as a response far below the control. Take `OCCn1cc2cc(-c3ccnc(NCC4CC4)n3)c(-c3ccc(F)cc3)nc2n1` [Example 211, 2-[5-[2-[(Cyclopropylmethyl)-amino]pyrimidin-4-yl]-6-(4-fluorophenyl)pyrazolo[3,4-b]pyridin-2-yl]ethanol]: the inhibition at 0.1 µM turned out to be 70.6%.

Molecule `OCCCn1cc2cc(-c3ccnc(NCC4CC4)n3)c(-c3ccc(F)cc3)nc2n1` [Example 212, 3-[5-[2-[(Cyclopropylmethyl)-amino]pyrimidin-4-yl]-6-(4-fluorophenyl)pyrazolo[3,4-b]pyridin-2-yl]propan-1-ol] returned an inhibition at 0.1 µM of 67.5%.

`OCCCn1cc2c(-c3ccc(F)cc3)c(-c3ccnc(NCC4CC4)n3)c(-c3ccc(F)cc3)nc2n1` [Example 213, 3-[5-[2-[(Cyclopropylmethyl)amino]-pyrimidin-4-yl]-4,6-bis(4-fluorophenyl)pyrazolo[3,4-b]pyridin-2-yl]propan-1-ol] had an inhibition at 0.1 µM of 68.1%.

`Cn1cc2c(-c3ccc(F)cc3)c(-c3ccnc(Nc4ccc(S(N)(=O)=O)cc4)c3)c(-c3ccc(F)cc3)nc2n1` [Example 214, 4-[4-[4,6-Bis(4-fluorophenyl)-2-methylpyrazolo[3,4-b]pyridin-5-yl]pyridin-2-ylamino]benzenesulfonamide] had an inhibition at 0.1 µM of 71.1%.

`Fc1ccc(-c2nc3[nH]ncc3c(-c3cc[nH]n3)c2-c2ccncc2)cc1` [Example 217, 6-(4-Fluorophenyl)-4-(1H-pyrazol-3-yl)-5-(4-pyridyl)-1H-pyrazolo[3,4-b]pyridine] displayed an inhibition at 0.1 µM of 53.8%.

On to `OCCNCCn1cc2c(-c3ccccc3)c(-c3ccncc3)c(-c3ccccc3)nc2n1` [Example 232, 2-[2-(4,6-Diphenyl-5-(4-pyridyl)pyrazolo[3,4-b]pyridin-2-yl)ethylamino]ethanol], for which at 0.1 µM the inhibition was 67.9%.

The molecule `CC(=O)NCCCn1cc2c(-c3ccc(F)cc3)c(-c3ccncc3)c(-c3ccc(F)cc3)nc2n1` [Example 240, N-[3-[4,6-Bis(4-fluorophenyl)-5-(4-pyridyl)pyrazolo[3,4-b]pyridin-2-yl]propyl]acetamide] returned an inhibition at 0.1 µM of 58.4%.

`O=C(NCCn1cc2c(-c3ccc(F)cc3)c(-c3ccncc3)c(-c3ccc(F)cc3)nc2n1)C1CCNCC1` [Example 248, N-[2-[4,6-Bis(4-fluorophenyl)-5-(4-pyridyl)pyrazolo[3,4-b]pyridin-2-yl]ethyl]piperidine-4-carboxamide] displayed an inhibition at 0.1 µM of 53.2%.

As for `O=C(CNCCO)NCCn1cc2c(-c3ccc(F)cc3)c(-c3ccncc3)c(-c3ccc(F)cc3)nc2n1` [Example 250, N-[2-[4,6-Bis(4-fluorophenyl)-5-(4-pyridyl)pyrazolo[3,4-b]pyridin-2-yl]ethyl]-2-(2-hydroxyethylamino)acetamide], testing at 0.1 µM gave an inhibition of 67%.

As to `CC(=O)Nc1n[nH]c2nc(-c3ccc(F)cc3)c(-c3ccnc(NCC4CC4)n3)cc12` [Example 268, N-[5-[2-[(Cyclopropylmethyl)amino]pyrimidin-4-yl]-6-(4-fluorophenyl)-1H-pyrazolo[3,4-b]pyridin-3-yl]acetamide], the inhibition at 0.1 µM is 69.1%.

The molecule `Cc1ccc(-c2c(-c3ccncc3)c(-c3ccc(F)cc3)nc3nn(CCCO)cc23)o1` [Example 272, 3-[6-(4-Fluorophenyl)-4-(5-methylfuran-2-yl)-5-(4-pyridyl)-pyrazolo[3,4-b]pyridin-2-yl]propan-1-ol] returned an inhibition at 0.1 µM of 65.6%.

The molecule `Cc1n[nH]c2nc(-c3ccc(F)cc3)c(-c3ccnc(N[C@@H](C)c4ccccc4)n3)cc12` [Example 279, (1S)-N-(1-Phenylethyl)-[4-[6-(4-fluorophenyl)-3-methyl-1H-pyrazolo[3,4-b]pyridin-5-yl]pyrimidin-2-yl]amine] had an inhibition at 0.1 µM of 100%.

`CC(CO)Nc1nccc(-c2cc3cn(C)nc3nc2-c2ccc(F)cc2)n1` (centres unmarked) [Example 283, 2-[4-[6-(4-Fluorophenyl)-2-methylpyrazolo[3,4-b]pyridin-5-yl]pyrimidin-2-ylamino]propan-1-ol] came in with an inhibition at 0.1 µM of 52.4%.

On to `OCCCNc1nccc(-c2cc3cn[nH]c3nc2-c2cccc(C(F)(F)F)c2)n1` [Example 287, 3-[4-[6-(3-Trifluoromethylphenyl)-1H-pyrazolo[3,4-b]pyridin-5-yl]pyrimidin-2-ylamino]propan-1-ol], for which at 0.1 µM the inhibition was 71.2%.

Turning to `CCNc1nccc(-c2cc3cn[nH]c3nc2-c2cccc(C(F)(F)F)c2)n1` [Example 289, N-Ethyl-[4-[6-(3-trifluoromethyl-phenyl)-1H-pyrazolo[3,4-b]pyridin-5-yl]pyrimidin-2-yl]amine], the inhibition at 0.1 µM was determined as 51.3%.

With `FC(F)(F)c1cccc(-c2nc3[nH]ncc3cc2-c2ccnc(NCc3ccccc3)n2)c1` [Example 290, N-Benzyl-[4-[6-(3-trifluoromethyl-phenyl)-1H-pyrazolo[3,4-b]pyridin-5-yl]pyrimidin-2-yl]amine], the inhibition at 0.1 µM came to 65.8%.

Staying with this experiment, now noted: test product at 0.1 μM, LPS 400 ng/mL, 19 h, TNF-α in supernatant by ELISA.
For orientation: % Inhibition means the share of the control response that was lost under treatment. A high value points to a response far below the control. For the molecule `c1ccc(-c2nc3[nH]ncc3cc2-c2ccnc(NCC3CC3)n2)cc1` [Example 282, N-Cyclopropylmethyl-4-[6-[phenyl-1H-pyrazolo[3,4-b]pyridin-5-yl]pyrimidin-2-yl]amine], the “% Inhibition at 0.1 μM” value came to 65.2%.

For the origin of these results see patent publication US7468376B2, “Pyrazolopyridine derivates” (Palau Pharma, S.A., priority 2003, dated 2008).
